Reference: patent US8790718B2, “Method of disinfection or infection control against norovirus” (Hiroshima University, priority 2007, dated 2014)

These compounds were tested on norovirus (assay: Anti-norovirus characteristics test (viral genome RNA by real-time PCR)). Conditions: comparative test results of Example 1.
Protocol: A frozen stock solution of a norovirus isolated from stools of a patient and cryopreserved at −80° C. was thawed on ice. A hundred microliters of the norovirus stock solution was diluted ten times with phosphate-buffered saline (PBS) and was spun in a refrigerated centrifuge at 10,000 rpm for 20 minutes to remove a precipitate. The resulting “norovirus test solution” (950 μL solution) was used in the following examples.
The “real-time PCR” in the following examples was performed in accordance with a document “Detection Method for Norovirus” attached to a notice (Notice No. 1105001 from the Inspection and Safety Division, dated Nov. 5, 2003. See http://www.mhlw.go.jp/topics/syokuchu/kanren/kanshi/031105-1.html) issued by the Director of the Inspection and Safety Division, Department of Food Safety, Pharmaceutical and Food Safety Bureau, Ministry of Health, Labour and Welfare.
The real-time PCR counts the number of viral genomes in the states of […] in FIG. 1. In the following examples, only elimination of (the RNA of) a norovirus illustrated in (c) is rated as “efficacious”, and the survival of (the RNA of) a norovirus illustrated in (b) is rated as “inefficacious” even if the infectivity and proliferative capacity of the norovirus are lost. Nevertheless, an anti-norovirus composition according to the present invention is rated as more efficacious than conventional compositions. Taking the state of a norovirus illustrated in (b) into account, an anti-norovirus composition according to the present invention should therefore have still higher practical efficacy.
Twenty-five microliters of the norovirus test solution and 25 μL of each of the compositions (A1 to A5 or B1 to B7) were sufficiently mixed. […] After the diluted solution was subjected to treatments, such as RNA extraction and cDNA synthesis, viral genome RNAs remaining in the diluted solution was counted by real-time PCR. […] These measured values for the sample solutions and the corresponding controls were compared to determine the inhibition rates of the compositions for the norovirus.
With O=C(O)c1cc(O)c(O)c(O)c1 [gallic acid] the “efficacy for a norovirus (in words)” value was “no efficacy”.
In the case of CCCOC(=O)c1cc(O)c(O)c(O)c1 [propyl gallate, gallic acid propyl ester], the “efficacy for a norovirus (in words)” value is reported as “no efficacy”.
In the case of catechin, the “efficacy for a norovirus (in words)” value is reported as “no efficacy”.
